This note sets out measurements from US20170166555A1, “FUNCTIONALISED AND SUBSTITUTED INDOLES AS ANTI-CANCER AGENTS” (Novogen Limited, priority 2013, published 2017).

Like-named read-outs stand apart in the source and are kept apart here.

In assay [1] the test system is melanoma (SK-Mel-28) cells. As to the kind of experiment: Cell viability assay (MTT, 48 hr). The conditions noted are these: Homo sapiens, 48 hr treatment, read-out: IC50 (μM) SKMEL28. Type of assay: cell-based. As for the experimental part:
(§1) Cell viability assays were also conducted to assess the anti-proliferative effects of the anti-tropomyosin compounds 4001-4015. Briefly, cells (1×10^3/well) were plated (96-well) and treated (48 hr) with anti-tropomyosin drug and viability measured using 3-(4,5-dimethylthiazol-2-yl)-2,5-diphenylterazolium bromide MTT. Cell viability was normalized to control (vehicle alone) and dose-response curves, and half maximal effective concentration (EC50) values were determined using Graph Pad Prism 5 (nonlinear regression sigmoidal dose-response variable slope).

Assay [2] concerns neuroblastoma (SH-EP) cells. Put plainly: Cell viability assay (MTT, 48 hr). Format: cell-based. The note with it: 48 hr treatment, read-out: IC50 (μM) SHEP. The protocol:
as §1

Assay [3] deals with non-transfected and Tm5NM1 stably transfected MEFs. Put plainly: MTT viability in non-transfected versus Tm5NM1 stably transfected MEFs. Type of assay: cell-based, mouse. The note with it: 48 hr, FIG. 1. The protocol:
FIG. 1: Activity of selected compounds against Tm5NM1/2 transfected mouse embryonic fibroblasts versus non-transfected MEFs.
Compounds 4001, 4010, 4014, 4008 and 4015 were then screened against non-transfected and Tm5NM1 stably transfected MEFs. Briefly, MEFs were transfected with pEYFP-C1/Tm5NM1 constructs using the Amaxa nucleofector apparatus (program A-023) and MEF nucleofector kit 1 (Lonza) according to the manufacturer's instructions. Cell viability assays were also conducted to assess the anti-proliferative effects of the anti-tropomyosin compounds. Briefly, cells (1×10^3/well) were plated (96-well) and treated (48 hr) with anti-tropomyosin compounds and viability measured using 3-(4,5-dimethylthiazol-2-yl)-2, 5-diphenylterazolium bromide MTT. Cell viability was normalized to control (vehicle alone) and dose-response curves, and half maximal effective concentration (EC50) values were determined using Graph Pad Prism 5 (nonlinear regression sigmoidal dose-response variable slope).

Assay [4] has as its system A549 non-small cell lung carcinoma cells. Put plainly: Anti-proliferative assay, cell-titre luminescent reagent, 72 h (GVK-BIO). Type of assay: cell-based. The conditions noted are these: Homo sapiens, read-out: IC50/μM Lung (NSLC) A549. The procedure, abridged: (§2)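 Cells were seeded, attached over 24 h at 37 °C/5% CO2, then exposed 72 h to 30, 3, 0.3, 0.03 μM or 30, 10, 3, 1, 0.3, 0.1 μM compound, with luminescent viability reagent read after 30 min. IC50 came from linear regression of percent-of-control, or EC50 from sigmoidal variable-slope fit against vehicle.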

The test system of assay [5] is CaCo2 colorectal cancer cells. The assay is described as above. Format: cell-based. The note with it: Homo sapiens. In outline: as §2
Assay [6] has as its system DU145 prostate cancer cells. The description is as above. Type of assay: cell-based. The conditions noted are these: Homo sapiens. In outline:
as §2

The subject of assay [7] is MDA-MB-231 triple negative breast cancer cells. The assay is described as above. Type of assay: cell-based. The note with it: Homo sapiens. The procedure, abridged: as §2
Assay [8] deals with PC3 prostate cancer cells. Described as above. Type of assay: cell-based. The procedure, abridged:
as §2

Assay [9] relates to SK-Mel-28 melanoma cells. The assay is described as above. Format: cell-based. The conditions noted are these: Homo sapiens. In outline: as §2
For assay [10], the system named is SK-N-SH neuroblastoma cells. The assay is described as above. Format: cell-based. The conditions noted are these: Homo sapiens. In outline: as §2
Setting [11] is: A549, 72 h, 30, 3, 0.3 and 0.03 μM, linear regression (Tables 2-4).
The mark [12] stands for this setting: Caco-2, 72 h, 30, 3, 0.3 and 0.03 μM, linear regression (Tables 2-4).
Where [13] appears, read: DU-145, 72 h, 30, 3, 0.3 and 0.03 μM, linear regression (Tables 2-4).
[14] abbreviates: MDA-MB-231, 72 h, 30, 3, 0.3 and 0.03 μM, linear regression (Tables 2-4).
[15] abbreviates: 30, 3, 0.3 and 0.03 μM, linear regression (Tables 2-4).
[16] abbreviates: SK-MEL-28, 72 h, 30, 3, 0.3 and 0.03 μM, linear regression (Tables 2-4).
Setting [17] is: SK-N-SH, 30, 3, 0.3 and 0.03 μM, linear regression (Tables 2-4).
Where [18] appears, read: A549, 72 h, 30, 10, 3, 1, 0.3 and 0.1 μM, nonlinear regression (Table 5).
The mark [19] stands for this setting: Caco-2, 72 h, 30, 10, 3, 1, 0.3 and 0.1 μM, nonlinear regression (Table 5).
The mark [20] stands for this setting: DU-145, 72 h, 30, 10, 3, 1, 0.3 and 0.1 μM, nonlinear regression (Table 5).
Setting [21] is: MDA-MB-231, 72 h, 30, 10, 3, 1, 0.3 and 0.1 μM, nonlinear regression (Table 5).
[22] abbreviates: 30, 10, 3, 1, 0.3 and 0.1 μM, nonlinear regression (Table 5).
The mark [23] stands for this setting: SK-MEL-28, 72 h, 30, 10, 3, 1, 0.3 and 0.1 μM, nonlinear regression (Table 5).
Setting [24] is: SK-N-SH, 30, 10, 3, 1, 0.3 and 0.1 μM, nonlinear regression (Table 5).

Regarding `CN(C)CCCn1ccc2cc(Cc3ccc(C(=O)Nc4ccccc4)cc3)ccc21` [Compound 4001, 4-((1-(3-(dimethylamino)propyl)-1H-indol-5-yl)methyl)-N-phenylbenzamide], the IC50 in assay [1] came to 4.3 µM; in [2] it was 4.63 µM; in assay [4] (setting [11]), 2.7 µM; in [5] (setting [12]), 3 µM; in [6] (setting [13]), 3.2 µM; in assay [7] (setting [14]), 3.1 µM. The IC50 stood at 2.8 µM in assay [8] (setting [15]), 3.6 µM in assay [9] (setting [16]) and 4.1 µM in assay [10] (setting [17]). In addition, the “Selectivity: toxicity against primary MEFs versus MEFs stably transfected with Tm5NM1/2” value (shortened to “Selectivity: toxicity”) in assay [3] was “less toxicity noted against primary mouse embryonic fibroblasts (MEFs) compared with MEFs stably transfected with Tm5NM1/2”.

On to `CN(C)CCCn1ccc2cc(Oc3ccc(C(=O)Nc4ccccc4)cc3)ccc21` [Compound 4002, 4-((1-(3-(dimethylamino)propyl)-1H-indol-5-yl)oxy)-N-phenylbenzamide], for which the IC50 in [1] was determined as 7.04 µM; in [2], 9.24 µM; in assay [4] (setting [18]) it was 16.3 µM; in [5] (setting [19]) it was 13.1 µM; in assay [6] (setting [20]) it was 37.4 µM; in assay [7] (setting [21]), 15.7 µM. Besides, the IC50 is 12.4 µM in assay [8] (setting [22]), 9.3 µM in assay [9] (setting [23]) and 3.2 µM in [10] (setting [24]).

Consider `CN(C)CCCn1ccc2cc(-c3cnn(Cc4ccccc4)c3)ccc21` [Compound 4003, 3-(5-(1-benzyl-1H-pyrazol-4-yl)-1H-indol-1-yl)-N,N-dimethylpropan-1-amine], for which the IC50 in [1] is 25.9 µM.

For `CC(c1ccccc1)n1cc(-c2ccc3c(ccn3CCCN(C)C)c2)cn1` (stereo not shown) [Compound 4004, N,N-dimethyl-3-(5-(1-(1-phenylethyl)-1H-pyrazol-4-yl)-1H-indol-1-yl)propan-1-amine], the figures for the IC50 in [1] and in [2] were 9.8 µM and 6.7 µM, respectively.

With `CN(C)CCCn1ccc2cc(-c3cnn(CC4CCN(C)CC4)c3)ccc21` [Compound 4005, N,N-dimethyl-3-(5-(1-((1-methylpiperidin-4-yl)methyl)-1H-pyrazol-4-yl)-1H-indol-1-yl)propan-1-amine], the IC50 in assay [1] amounted to 53.8 µM; in [2], 5.4 µM.

In the case of `CN(C)CCCn1ccc2cc(-c3cnn(CC4CCOCC4)c3)ccc21` [Compound 4006, N,N-dimethyl-3-(5-(1-((tetrahydro-2H-pyran-4-yl)methyl)-1H-pyrazol-4-yl)-1H-indol-1-yl)propan-1-amine], the IC50 in assay [2] amounted to 107 µM.

For `CN(C)CCCn1ccc2cc(Cc3cccc(C(=O)Nc4ccccc4)c3)ccc21` [Compound 4008], the IC50 is 3.4 µM in [1]; 2.7 µM in assay [2]; 3.8 µM in assay [4] (setting [11]); 5.8 µM in assay [5] (setting [12]); 3.3 µM in assay [6] (setting [13]); 3.9 µM in assay [7] (setting [14]). For the same molecule, the IC50 in [8] (setting [15]) was determined as 4.3 µM; in assay [9] (setting [16]) it was 3.3 µM; in assay [10] (setting [17]), 9.3 µM.

Take `Cc1c(C)n(CCCN(C)C)c2ccc(-c3cnn(Cc4ccccc4)c3)cc12` [Compound 4009, 3-(5-(1-benzyl-1H-pyrazol-4-yl)-2,3-dimethyl-1H-indol-1-yl)-N,N-dimethylpropan-1-amine]: the figures for the IC50 in [1] and in assay [2] were 5.4 µM and 3 µM, respectively.

For `Cc1c(C)n(CCCN(C)C)c2ccc(Nc3ccc(C(=O)Nc4ccccc4)cc3)cc12` [Compound 4010, 4-((1-(3-(dimethylamino)propyl)-2,3-dimethyl-1H-indol-5-yl)amino)-N-phenylbenzamide], the IC50 in [1] was 3.4 µM; in [2], 6.4 µM; in assay [4] (setting [11]) it was 2.8 µM; in assay [5] (setting [12]), 3.5 µM; in assay [6] (setting [13]), 3.4 µM; in assay [7] (setting [14]), 2.6 µM. Also, the IC50 in assay [8] (setting [15]) is 4 µM; in [9] (setting [16]), 3.4 µM; in [10] (setting [17]), 3.6 µM. The “Selectivity: toxicity” value in assay [3] is given as “less toxicity noted against primary mouse embryonic fibroblasts (MEFs) compared with MEFs stably transfected with Tm5NM1/2”.

Regarding `Cc1c(C)n(CCCN(C)C)c2ccc(Nc3cccc(C(=O)Nc4ccccc4)c3)cc12` [Compound 4011, 3-((1-(3-(dimethylamino)propyl)-2,3-dimethyl-1H-indol-5-yl)amino)-N-phenylbenzamide], the IC50 in assay [1] was 9.7 µM; in [2], 8.7 µM; in assay [4] (setting [11]) it was 3 µM; in assay [5] (setting [12]), 2.8 µM; in assay [6] (setting [13]) it was 3.3 µM; in assay [7] (setting [14]), 2.5 µM. Moreover, the IC50 is 4.3 µM in [8] (setting [15]), 6.1 µM in [9] (setting [16]) and 2.5 µM in [10] (setting [17]).

For the molecule `CN(C)CCCn1ccc2cc(Nc3cccc(C(=O)Nc4ccccc4)c3)ccc21` [Compound 4013, 3-((1-(3-(dimethylamino)propyl)-1H-indol-5-yl)amino)-N-phenylbenzamide], the IC50 is 15.8 µM in assay [1]; 14.5 µM in [2]; 7.6 µM in assay [4] (setting [11]); > 30 µM in [5] (setting [12]); > 30 µM in assay [6] (setting [13]); 3.7 µM in assay [7] (setting [14]). Moreover, the values for the IC50 in assay [8] (setting [15]), in [9] (setting [16]) and in assay [10] (setting [17]) were > 30 µM, 9.2 µM and 4.2 µM, respectively.

Turning to `CN(C)CCCn1ccc2cc(Oc3cccc(C(=O)Nc4ccccc4)c3)ccc21` [Compound 4014, 3-((1-(3-(dimethylamino)propyl)-1H-indol-5-yl)oxy)-N-phenylbenzamide], the IC50 in assay [1] was found to be 4 µM; in assay [2], 4.3 µM; in assay [4] (setting [11]), 2.9 µM; in [5] (setting [12]), 3.9 µM; in [6] (setting [13]) it was 3.6 µM; in [7] (setting [14]), 2.5 µM. Further, the values for the IC50 in assay [8] (setting [15]), in assay [9] (setting [16]) and in assay [10] (setting [17]) were 3.7 µM, 3.2 µM and 3 µM, respectively. The “Selectivity: toxicity” value in assay [3] is recorded as “less toxicity noted against primary mouse embryonic fibroblasts (MEFs) compared with MEFs stably transfected with Tm5NM1/2”.

Take `Cc1c(C)n(CCCN2CCN(C)CC2)c2ccc(C(=O)N3CCN(CCc4cccc(O)c4)CC3)cc12` [Compound 4126, (2,3-dimethyl-1-(3-(4-methylpiperazin-1-yl)propyl)-1H-indol-5-yl)(4-(3-hydroxyphenethyl)piperazin-1-yl)methanone]: the IC50 in assay [4] (setting [18]), in [5] (setting [19]), in assay [6] (setting [20]), in [7] (setting [21]), in assay [8] (setting [22]) and in assay [9] (setting [23]) was > 30 µM in each case. In assay [10] (setting [24]), the IC50 was > 30 µM.

With `Cc1c(C)n(CCCN2CCN(C)CC2)c2ccc(C(=O)N3CCN(CCc4ccccc4)CC3)cc12` [Compound 4127, (2,3-dimethyl-1-(3-(4-methylpiperazin-1-yl)propyl)-1H-indol-5-yl)(4-phenethylpiperazin-1-yl)methanone], the IC50 in assay [4] (setting [11]) was 13.1 µM; in assay [5] (setting [12]), 10.7 µM; in [6] (setting [13]) it was > 30 µM; in [7] (setting [14]), 13.5 µM; in [8] (setting [15]) it was 12.9 µM; in assay [9] (setting [16]), 14.4 µM. The IC50 in [10] (setting [17]) was 10.5 µM.
